System: human cervical tumor cell line HeLa (ATCC CCL-2)
Test: SAC-Formation - Paclitaxel-Induced Assay
Format: cell-based
Conditions: Homo sapiens, HeLa, 24 h, HeLa cells, paclitaxel 0.05 μM, test range 0.005 μM-20 μM, read-out: IC50 [mol/l] SAC-Formation - Paclitaxel-Induced Assay
Outline: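 HeLa cells incubated overnight at 37° C, then given paclitaxel (0.05 μM final) plus test compound (0.005–20 μM, 0.5% DMSO) together for 24 h at 37° C. Fixed cells stained for phospho-histone H3 Ser10 (mitotic cells) and Hoechst 33342 (cell count); imaging-derived mitotic index fitted by four-parameter Hill equation.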

Cc1nsc(Nc2cnc(C(F)(F)F)cn2)c1C(=O)Nc1ccc(OCC2CCN(CCC(F)(F)F)CC2)nc1 [Example 347, 3-methyl-5-{[5-(trifluoromethyl)pyrazin-2-yl]amino}-N-(6-{[1-(3,3,3-trifluoropropyl)piperidin-4-yl]methoxy}pyridin-3-yl)-1,2-thiazole-4-carboxamide] showed an IC50 of 64 nM.
In the case of Cc1nsc(Nc2cnc(C(F)(F)F)cn2)c1C(=O)Nc1ccc(OCCN(C)CCF)nc1 [Example 348, N-(6-{2-[(2-fluoroethyl)(methyl)amino]ethoxy}pyridin-3-yl)-3-methyl-5-{[5-(trifluoromethyl)pyrazin-2-yl]amino}-1,2-thiazole-4-carboxamide], the IC50 is reported as 520 nM.
For Cc1nsc(Nc2cnc(C(F)(F)F)cn2)c1C(=O)Nc1ccc(OCCN(C)CC(F)F)nc1 [Example 349, N-(6-{2-[(2,2-difluoroethyl)(methyl)amino]ethoxy}pyridin-3-yl)-3-methyl-5-{[5-(trifluoromethyl)pyrazin-2-yl]amino}-1,2-thiazole-4-carboxamide], the IC50 was 50 nM.
With Cc1nsc(Nc2cnc(C(F)(F)F)cn2)c1C(=O)Nc1ccc(OCCN(C)CC(F)(F)F)nc1 [Example 350, 3-methyl-N-(6-{2-[methyl(2,2,2-trifluoroethyl)amino]ethoxy}pyridin-3-yl)-5-{[5-(trifluoromethyl)pyrazin-2-yl]amino}-1,2-thiazole-4-carboxamide] the IC50 was 57 nM.
With Cc1nsc(Nc2cnc(C(F)(F)F)cn2)c1C(=O)Nc1ccc(OCCN(C)CCC(F)(F)F)nc1 [Example 351, 3-methyl-N-(6-{2-[methyl(3,3,3-trifluoropropyl)amino]ethoxy}pyridin-3-yl)-5-{[5-(trifluoromethyl)pyrazin-2-yl]amino}-1,2-thiazole-4-carboxamide] the IC50 was 210 nM.
Cc1nsc(Nc2cnc(C(F)(F)F)cn2)c1C(=O)Nc1ccc(OCCCN(C)CCF)nc1 [Example 352, N-(6-{3-[(2-fluoroethyl)(methyl)amino]propoxy}pyridin-3-yl)-3-methyl-5-{[5-(trifluoromethyl)pyrazin-2-yl]amino}-1,2-thiazole-4-carboxamide] gave an IC50 of 520 nM.
In the case of Cc1nsc(Nc2cnc(C(F)(F)F)cn2)c1C(=O)Nc1ccc(OCCCN(C)CC(F)F)nc1 [Example 353, N-(6-{3-[(2,2-difluoroethyl)(methyl)amino]propoxy}pyridin-3-yl)-3-methyl-5-{[5-(trifluoromethyl)pyrazin-2-yl]amino}-1,2-thiazole-4-carboxamide], the IC50 is reported as 150 nM.
Cc1nsc(Nc2cnc(C(F)(F)F)cn2)c1C(=O)Nc1ccc(OCCCN(C)CC(F)(F)F)nc1 [Example 354, 3-methyl-N-(6-{3-[methyl(2,2,2-trifluoroethyl)amino]propoxy}pyridin-3-yl)-5-{[5-(trifluoromethyl)pyrazin-2-yl]amino}-1,2-thiazole-4-carboxamide] showed an IC50 of 120 nM.
Cc1nsc(Nc2cnc(C(F)(F)F)cn2)c1C(=O)Nc1ccc(OCCCN(C)CCC(F)(F)F)nc1 [Example 355, 3-methyl-N-(6-{3-[methyl(3,3,3-trifluoropropyl)amino]propoxy}pyridin-3-yl)-5-{[5-(trifluoromethyl)pyrazin-2-yl]amino}-1,2-thiazole-4-carboxamide] was tested, and the IC50 was 190 nM.
Work on Cc1nsc(Nc2cnc(C(F)(F)F)cn2)c1C(=O)Nc1ccc(CCC2CCN(CC(F)F)CC2)nc1 [Example 356, N-(6-{2-[1-(2,2-difluoroethyl)piperidin-4-yl]ethyl}pyridin-3-yl)-3-methyl-5-{[5-(trifluoromethyl)pyrazin-2-yl]amino}-1,2-thiazole-4-carboxamide] yielded an IC50 of 250 nM.
For Cc1nsc(Nc2cnc(C(F)(F)F)cn2)c1C(=O)Nc1ccc(C2CCN(CC(F)F)CC2)nc1 [Example 357, N-{6-[1-(2,2-difluoroethyl)piperidin-4 yl]pyridin-3-yl}-3-methyl-5-{[5-(trifluoromethyl)pyrazin-2-yl]amino}-1,2-thiazole-4-carboxamide], the IC50 was 99 nM.
Work on Cc1nsc(Nc2cnc(C(F)(F)F)cn2)c1C(=O)Nc1ccc(C2CCN(CC(F)(F)F)CC2)nc1 [Example 358, 3-methyl-N-{6-[1-(2,2,2-trifluoroethyl)piperidin-4-yl]pyridin-3-yl}-5-{[5-(trifluoromethyl)pyrazin-2-yl]amino}-1,2-thiazole-4-carboxamide] yielded an IC50 of 68 nM.
Cc1nsc(Nc2cnc(C(F)(F)F)cn2)c1C(=O)Nc1ccc(N2CCN(CC(F)F)CC2)nc1 [Example 359, N-{6-[4-(2,2-difluoroethyl)piperazin-1-yl]pyridin-3-yl}-3-methyl-5-{[5-(trifluoromethyl)pyrazin-2-yl]amino}-1,2-thiazole-4-carboxamide] was tested, and the IC50 was 110 nM.
In the case of Cc1nsc(Nc2cnc(C(F)(F)F)cn2)c1C(=O)Nc1ccc(N2CCN(CC(F)(F)F)CC2)nc1 [Example 360, 3-methyl-N-{6-[4-(2,2,2-trifluoroethyl)piperazin-1-yl]pyridin-3-yl}-5-{[5-(trifluoromethyl)pyrazin-2-yl]amino}-1,2-thiazole-4-carboxamide], the IC50 is reported as 75 nM.
Cc1nsc(Nc2cnc(C(F)(F)F)cn2)c1C(=O)Nc1ccc(N2CCN(CCC(F)(F)F)CC2)nc1 [Example 361, 3-methyl-5-{[5-(trifluoromethyl)pyrazin-2-yl]amino}-N-{6-[4-(3,3,3-trifluoropropyl)piperazin-1-yl]pyridin-3-yl}-1,2-thiazole-4-carboxamide] showed an IC50 of 120 nM.
Cc1nsc(Nc2cnc(C(F)(F)F)cn2)c1C(=O)Nc1ccc(O[C@H]2CCN(CC(F)F)C[C@@H]2F)nc1 [Example 362] was tested, and the IC50 was 59 nM.
Cc1nsc(Nc2cnc(C(F)(F)F)cn2)c1C(=O)Nc1ccc(O[C@H]2CCN(CC(F)(F)F)C[C@@H]2F)nc1 [Example 363, N-(6-{[(3S,4S)-3-fluoro-1-(2,2,2-trifluoroethyl)piperidin-4-yl]oxy}pyridin-3-yl)-3-methyl-5-{[5-(trifluoromethyl)pyrazin-2-yl]amino}-1,2-thiazole-4-carboxamide] gave an IC50 of 47 nM.
Work on Cc1nsc(Nc2cnc(C(F)(F)F)cn2)c1C(=O)Nc1ccc(O[C@H]2CCN(CCC(F)(F)F)C[C@@H]2F)nc1 [Example 364, N-(6-{[(3S,4S)-3-fluoro-1-(3,3,3-trifluoropropyl)piperidin-4-yl]oxy}pyridin-3-yl)-3-methyl-5-{[5-(trifluoromethyl)pyrazin-2-yl]amino}-1,2-thiazole-4-carboxamide] yielded an IC50 of 40 nM.
With CCN1CC[C@H](Oc2ccc(NC(=O)c3c(C)nsc3Nc3cnc(C(F)(F)F)cn3)cn2)[C@@H](F)C1 [Example 365, N-(6-{[(3S,4S)-1-ethyl-3-fluoropiperidin-4-yl]oxy}pyridin-3-yl)-3-methyl-5-{[5-(trifluoromethyl)pyrazin-2-yl]amino}-1,2-thiazole-4-carboxamide] the IC50 was 150 nM.
Work on Cc1nsc(Nc2cnc(C(F)(F)F)cn2)c1C(=O)Nc1ccc(O[C@@H]2CCN(CC(F)F)C[C@H]2F)nc1 [Example 366, N-(6-{[(3R,4R)-1-(2,2-difluoroethyl)-3-fluoropiperidin-4-yl]oxy}pyridin-3-yl)-3-methyl-5-{[5-(trifluoromethyl)pyrazin-2-yl]amino}-1,2-thiazole-4-carboxamide] yielded an IC50 of 98 nM.
Molecule Cc1nsc(Nc2cnc(C(F)(F)F)cn2)c1C(=O)Nc1ccc(O[C@@H]2CCN(CC(F)(F)F)C[C@H]2F)nc1 [Example 367, N-(6-{[(3R,4R)-3-fluoro-1-(2,2,2-trifluoroethyl)piperidin-4-yl]oxy}pyridin-3-yl)-3-methyl-5-{[5-(trifluoromethyl)pyrazin-2-yl]amino}-1,2-thiazole-4-carboxamide] has an IC50 of 37 nM.

— patent US20170334899A1, “AMINO-SUBSTITUTED ISOTHIAZOLES” (Bayer Pharma Aktiengesellschaft, priority 2014, published 2017)
